From US5082828A, “Eclosion hormone peptides” (Sandoz Ltd., priority 1991, dated 1992)

Key:
[1] = tested on: pharate adult H. virescens; set-up: species or system Heliothis virescens; conditions: in vivo
Procedure: The biological activity of EH in fractions from each purification step is detected using a pharate adult H. virescens in vivo assay, similar to that described by Fugo (1983) Appl. Ent. Zoo. 18:540-44 and Truman (1973) Biol. Bull. 14:44:200-211, both of which are incorporated by reference. Insects are injected in the dorsal thorax with 5 μl aliquots dissolved in physiological saline, approximately 7 hr before normal eclosion, which occurs just after the onset of darkness. Moths eclosing within 3 hr of injection are scored as receiving EH, a positive response.

[2] = tested on: late second stadium M. sexta; format: in vivo, Manduca sexta
Procedure: The biological activity of isolated EH is assayed as follows. Late second stadium M. sexta are selected for assay when third stadium mandibles are visible through the fluid-filled second stadium head capsule. Development of these larvae, held at 31° C., is checked at 15 min intervals until an air bubble first appears in the head capsule. "Air bubble" larvae are immediately injected in the dorsal abdomen with 1 μl of the test fractions, and time to molt of treated and controls is compared at room temperature ~21° C.). Mean time to molt for EH-affected larvae is 50 min; that for controls is 109 min. Purified EH is active at 0.1 ng per pharate adult H. virescens, and at 0.01 ng per second stadium M. sexta.

larval molt = conditions: EH present in the hemolymph during a sensitive period when it is normally absent; cited from earlier work

Eclosion hormone [EH]
dose evoking positive EH-like response (active dose) [1]: 0.1 ng per pharate adult | mean time to molt ([2]; EH-affected larvae at room temperature ~21° C., controls 109 min): 50 min | dose evoking positive EH-like response (active dose) ([2]; in vivo): 0.01 ng per second stadium M. sexta | effect on larval molt (larval molt): block the larval molt completely
